Publication PMC8467962, “Design and Synthesis of Water-Soluble and Potent MMP-13 Inhibitors with Activity in Human Osteosarcoma Cells” (International Journal of Molecular Sciences, 2021)
≈ marks a conversion by molar mass, not a printed value. Read-outs that look alike come from different tables or passages of the source.

What was measured:
MMP-13 = biological target: T1, MMP-13 (Homo sapiens, UniProt P45452); parameters: method as in PMID 30629065; details: cited from earlier work
T1 construct: the catalytic domains of the corresponding MMP were incubated in triplicate; purchased Enzo Life Science International, Inc

MMP-14 = biological target: T2, MMP-14 (Homo sapiens, UniProt P50281); parameters: method as in PMID 30629065; details: panel of MMPs; cited from earlier work
T2 construct: the catalytic domains of the corresponding MMP were incubated in triplicate; purchased Enzo Life Science International, Inc

MMP-7 = biological target: T3, MMP-7 (Homo sapiens, UniProt P09237); parameters: method as in PMID 30629065; details: panel of MMPs; cited from earlier work
T3 construct: the catalytic domains of the corresponding MMP were incubated in triplicate; purchased Enzo Life Science International, Inc
T3 sequence (P09237 95-267): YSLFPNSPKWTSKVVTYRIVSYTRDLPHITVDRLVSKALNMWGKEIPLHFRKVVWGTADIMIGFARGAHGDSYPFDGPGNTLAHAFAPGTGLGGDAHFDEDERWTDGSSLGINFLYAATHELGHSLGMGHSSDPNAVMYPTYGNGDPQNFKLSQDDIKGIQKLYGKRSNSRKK

[1] = Thermodynamic solubility (shake flask method); assay type: physicochemical; details: phosphate buffer, aqueous buffer, thermodynamic from solid; PBS pH 7.4, shake flask, room temperature; read-out: Experimental Water Solubility LogS (converted)
Procedure: The samples were sonicated for 10 min and shaken overnight at 800 rpm (FB15013 TopMix, Fischer Scientific, Waltham, MA, USA) at room temperature. A first phase separation of supernatant and undissolved solid was performed by centrifugation at 5000 rpm for 20 min (Biofuge primo R). The supernatant was then transferred into Eppendorf tubes for a second centrifugation. An adequate dilution was made using the particle-free supernatant and the concentration quantified by LC-HRMS using a 4-point calibration curve (Agilent 1260 Infinity II).
PART A. Calibration curves of compounds for solubility
9e, 10a-e), 4-points calibration curves were made for each compound. Calibrations curves were obtained using four different concentrations of the corresponding compound (0.1 mg/mL, 0.01 mg/mL, 0.001 mg/mL and 0.0001 mg/mL). All samples were prepared in DMSO and measured in a LC-HRMS (Agilent 1260 Infinity II).
Figure S1. Calibration curves of all active compounds (solubility studies) (1, 2, 9a, 9e, 10a-e) […]

MMP-10 = biological target: T4, MMP-10 (Homo sapiens, UniProt P09238); parameters: method as in PMID 30629065; details: panel of MMPs; cited from earlier work
T4 construct: the catalytic domains of the corresponding MMP were incubated in triplicate; purchased Enzo Life Science International, Inc
T4 sequence (P09238 99-263 limits assumed): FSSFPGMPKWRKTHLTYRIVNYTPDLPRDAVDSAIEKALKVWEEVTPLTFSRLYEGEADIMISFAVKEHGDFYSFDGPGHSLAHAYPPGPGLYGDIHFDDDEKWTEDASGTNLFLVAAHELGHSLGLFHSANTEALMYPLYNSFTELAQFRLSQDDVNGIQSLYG

MMP-8 = biological target: T5, MMP-8 (Homo sapiens, UniProt P22894); parameters: method as in PMID 30629065; details: panel of MMPs; cited from earlier work
T5 construct: the catalytic domains of the corresponding MMP were incubated in triplicate; purchased Enzo Life Science International, Inc
T5 sequence (P22894 100-262 limits assumed): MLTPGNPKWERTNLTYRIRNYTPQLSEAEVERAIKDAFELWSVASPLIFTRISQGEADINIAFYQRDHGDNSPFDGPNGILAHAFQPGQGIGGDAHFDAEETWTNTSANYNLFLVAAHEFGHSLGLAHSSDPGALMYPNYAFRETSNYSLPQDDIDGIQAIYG

MMP-1 = biological target: T6, MMP-1 (Homo sapiens, UniProt P03956); parameters: method as in PMID 30629065; details: panel of MMPs; cited from earlier work
T6 construct: the catalytic domains of the corresponding MMP were incubated in triplicate; purchased Enzo Life Science International, Inc
T6 sequence (P03956 100-269 limits assumed): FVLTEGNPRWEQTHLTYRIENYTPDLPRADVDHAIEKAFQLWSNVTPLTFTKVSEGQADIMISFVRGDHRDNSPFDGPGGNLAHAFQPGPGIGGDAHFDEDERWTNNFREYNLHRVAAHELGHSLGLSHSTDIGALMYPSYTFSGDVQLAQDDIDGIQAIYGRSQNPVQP

MMP-9 = biological target: T7, MMP-9 (Homo sapiens, UniProt P14780); parameters: method as in PMID 30629065; details: panel of MMPs; cited from earlier work
T7 construct: the catalytic domains of the corresponding MMP were incubated in triplicate; purchased Enzo Life Science International, Inc
T7 sequence (P14780 107-444 limits assumed): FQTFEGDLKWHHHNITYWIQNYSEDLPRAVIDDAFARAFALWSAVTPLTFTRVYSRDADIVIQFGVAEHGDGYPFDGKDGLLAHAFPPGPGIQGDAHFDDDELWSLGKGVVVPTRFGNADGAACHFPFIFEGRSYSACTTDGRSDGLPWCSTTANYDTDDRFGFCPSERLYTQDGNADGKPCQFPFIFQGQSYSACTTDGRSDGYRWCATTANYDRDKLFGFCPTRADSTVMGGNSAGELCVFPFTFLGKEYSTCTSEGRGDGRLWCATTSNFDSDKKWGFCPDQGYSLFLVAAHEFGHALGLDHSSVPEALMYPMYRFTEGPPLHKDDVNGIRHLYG

MMP-12 = biological target: T8, MMP-12 (Homo sapiens, UniProt P39900); parameters: method as in PMID 30629065; details: panel of MMPs; cited from earlier work
T8 construct: the catalytic domains of the corresponding MMP were incubated in triplicate; purchased Enzo Life Science International, Inc
T8 sequence (P39900 106-263 limits assumed): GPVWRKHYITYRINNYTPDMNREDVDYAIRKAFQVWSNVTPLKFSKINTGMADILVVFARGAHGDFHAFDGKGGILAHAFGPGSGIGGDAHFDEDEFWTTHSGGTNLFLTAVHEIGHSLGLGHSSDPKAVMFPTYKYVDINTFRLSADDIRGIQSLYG

MMP-3 = biological target: T9, MMP-3 (Homo sapiens, UniProt P08254); parameters: method as in PMID 30629065; details: panel of MMPs; cited from earlier work
T9 construct: the catalytic domains of the corresponding MMP were incubated in triplicate; purchased Enzo Life Science International, Inc
T9 sequence (P08254 100-272 limits assumed): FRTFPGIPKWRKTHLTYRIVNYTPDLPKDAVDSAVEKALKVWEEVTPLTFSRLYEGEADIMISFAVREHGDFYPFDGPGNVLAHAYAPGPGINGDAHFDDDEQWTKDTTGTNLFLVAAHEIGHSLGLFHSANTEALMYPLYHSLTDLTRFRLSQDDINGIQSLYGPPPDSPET

MMP-2 = biological target: T10, MMP-2 (Homo sapiens, UniProt P08253); parameters: method as in PMID 30629065; details: cited from earlier work
T10 construct: the catalytic domains of the corresponding MMP were incubated in triplicate; purchased Enzo Life Science International, Inc
T10 sequence (P08253 110-446 limits assumed): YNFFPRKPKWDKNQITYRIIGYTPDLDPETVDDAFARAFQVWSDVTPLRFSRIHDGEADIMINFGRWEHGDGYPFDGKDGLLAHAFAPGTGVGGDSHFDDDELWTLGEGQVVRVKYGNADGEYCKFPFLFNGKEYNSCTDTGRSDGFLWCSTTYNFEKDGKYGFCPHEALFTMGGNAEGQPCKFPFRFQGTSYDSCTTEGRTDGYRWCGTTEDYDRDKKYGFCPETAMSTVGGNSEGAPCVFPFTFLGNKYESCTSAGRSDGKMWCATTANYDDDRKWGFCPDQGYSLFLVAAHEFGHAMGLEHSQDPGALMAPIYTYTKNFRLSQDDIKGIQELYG

O=C(NO)[C@@H](Cc1ccccc1)NS(=O)(=O)c1ccc(-n2cc(CCn3nc4c(Br)c(Br)c(Br)c(Br)c4n3)nn2)cc1 [Compound 1]
IC50 (MMP-13; panel of MMPs, read-out: IC50 MMP-13): 3.7 nM | IC50 (MMP-13; previous work, read-out: MMP-13 IC50): 3.7 ± 1.85 nM | IC50 (MMP-14): > 1000 nM | IC50 (MMP-7): > 1000 nM | solubility [1]: 2.88 µM (≈ 2.45 µg/mL) | IC50 (MMP-10): 434 nM | IC50 (MMP-8): > 500 nM | IC50 (MMP-1): > 1000 nM | IC50 (MMP-9): > 500 nM | IC50 (MMP-12): 17.8 nM | IC50 (MMP-3): 500 nM | IC50 (MMP-2; panel of MMPs, read-out: IC50 MMP-2): 70 nM | IC50 (MMP-2; previous work, read-out: MMP-2 IC50): 70 nM
